Measured values taken from patent publication US11415579B2, “Assay for measuring a rate of reaction between a target and a ligand candidate” (Imperial College Innovations Ltd., priority 2016, dated 2022).

What was measured:
[1] = biological target: T1, Cdk2[C177A, F80C, K278C] (Homo sapiens, UniProt P24941, C177A/F80C/K278C); assay: Kinetic thiol consumption assay with mutant Cdk2 as model thiol; format: binding; design: unit not given here; conditions: 500 μM ligand, 5 μM thiol, phosphate buffer pH 8
T1 construct: poly-histidine; made in house; host or cells: E. coli
Protocol: A library of 120 acrylamides was screened against a) human cyclin-dependent kinase 2 (Cdk2, which contains one surface exposed cysteine residue—C177), prepared by cloning cDNA into the pRSETA bacterial expression vector to generate a poly-histidine tagged Cdk2 fusion that was purified from E. coli using standard techniques, and b) a model thiol (specific details are given below). The structures of these 120 acrylamides are set out in Table 1, above.
To wells containing 150 μL thiol (Cdk2 or model thiol) (5 μM) in degassed phosphate buffer (pH 8) was added immobilized TCEP beads (2% v/v).
After incubation of the fluorescence plates for 1 hour at room temperature, fluorescence measurements (excitation/emission of 380/470 nm) were taken on a PerkinElmer EnVision multilabel plate reader and processed with EnVision Workstation version 1.12.
Fluorescence measurements were normalized against a DMSO/thiol only control and plotted against time.
Rate constants were calculated using GraphPad software Prism version 6 by fitting a first order exponential decay to the data. The rate constant for each acrylamide with Cdk2 was divided by the rate constant for that fragment with the model thiol to provide the rate enhancement for each ligand candidate.
The model thiol used in Example 2 is a mutant form of human Cdk2 (C177A, F80C, K278C) which contains two engineered surface exposed cysteine residues. Mutations were introduced by site-directed mutagenesis and the resulting cDNA was cloned into the pRSETA bacterial expression vector to generate a poly-histidine tagged Cdk2 fusion that was purified from E. coli using standard techniques.

[2] = biological target: T2, human cyclin-dependent kinase 2 (Cdk2) (Homo sapiens, UniProt P24941); assay: Kinetic thiol consumption assay with wild type Cdk2 (C177); format: binding; design: key to Rate enhancement, Cdk2 WT: k(Cdk2) divided by k(model thiol); Rate constant with Cdk2 (k(Cdk2)): unit not given here; conditions: for Rate constant with Cdk2 (k(Cdk2)): 500 μM ligand, 5 μM thiol, phosphate buffer pH 8; for k(Cdk2)/k(Cdk2_mut) rate enhancement: model thiol Cdk2[C177A, F80C, K278C]; for k(Cdk2)/k(GSH) rate enhancement: model thiol glutathione
T2 construct: poly-histidine; made in house; host or cells: E. coli
Summary of the method: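 His-tagged human Cdk2 from E. coli (sole surface cysteine C177) or a model thiol, each 5 μM in degassed phosphate buffer pH 8 with immobilized TCEP, reacted with acrylamides at room temperature. Fluorescence (ex 380/em 470) normalized to DMSO/thiol control over time; first-order rate constants, Cdk2 rate divided by model-thiol rate.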

[3] = Kinetic thiol consumption assay with model thiol glutathione; format: physicochemical; design: Rate constant with glutathione (k(GSH)): unit not given here; conditions: 500 μM ligand, 5 μM thiol, phosphate buffer pH 8
Summary of the method: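 First, 5 μM glutathione in degassed phosphate buffer (pH 8) receives immobilized TCEP beads (2% v/v). Then acrylamide is added and plates incubate 1 h at room temperature. Finally, fluorescence (380/470 nm) is normalized and fitted to first-order decay for rate constants.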

[4] = biological target: T3, Cdk2(S276C) (C177A) (Homo sapiens, UniProt P24941, C177A/S276C); assay: Kinetic thiol consumption assay with Cdk2 mutant S276C; format: binding; design: key to Rate enhancement, Cdk2 S276C: rate constant with Cdk2 ÷ rate constant with model thiol (fold); conditions: additional mutation C177A
T3 construct: poly-histidine; made in house; host or cells: E. coli
Summary of the method: (§1)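 His-tagged single-surface-cysteine Cdk2 mutants (C177A background) from E. coli, 5 μM in degassed phosphate buffer pH 8, pre-treated with immobilized TCEP beads. Fluorescence (ex/em 380/470 nm) read after 1 h at room temperature, normalized to DMSO/thiol-only control; first-order decay fits gave rate constants, divided by model-thiol rate for rate enhancement.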

[5] = biological target: T4, Cdk2(T182C) (C177A) (Homo sapiens, UniProt P24941, C177A/T182C); assay: Kinetic thiol consumption assay with Cdk2 mutant T182C; format: binding; design: key to Rate enhancement, Cdk2 T182C: rate constant with Cdk2 ÷ rate constant with model thiol (fold); conditions: additional mutation C177A
T4 construct: poly-histidine; made in house; host or cells: E. coli
Summary of the method: as §1

[6] = biological target: T5, Cdk2(R122C) (C177A) (Homo sapiens, UniProt P24941, C177A/R122C); assay: Kinetic thiol consumption assay with Cdk2 mutant R122C; format: binding; design: key to Rate enhancement, Cdk2 R122C: rate constant with Cdk2 ÷ rate constant with model thiol (fold); conditions: additional mutation C177A
T5 construct: poly-histidine; made in house; host or cells: E. coli
Summary of the method: as §1

[7] = biological target: T6, Cdk2(H71C) (C177A) (Homo sapiens, UniProt P24941, C177A/H71C); assay: Kinetic thiol consumption assay with Cdk2 mutant H71C; format: binding; design: key to Rate enhancement, Cdk2 H71C: rate constant with Cdk2 ÷ rate constant with model thiol (fold); conditions: additional mutation C177A
T6 construct: poly-histidine; made in house; host or cells: E. coli
Summary of the method: as §1

[8] = biological target: T7, Cdk2(N272C) (C177A) (Homo sapiens, UniProt P24941, C177A/N272C); assay: Kinetic thiol consumption assay with Cdk2 mutant N272C; format: binding; design: key to Rate enhancement, Cdk2 N272: rate constant with Cdk2 ÷ rate constant with model thiol (fold)
T7 construct: poly-histidine; made in house; host or cells: E. coli
Summary of the method: as §1

[9] = biological target: T8, Cdk2(S181C) (C177A) (Homo sapiens, UniProt P24941, C177A/S181C); assay: Kinetic thiol consumption assay with Cdk2 mutant S181C; format: binding; design: key to Rate enhancement, Cdk2 S181C: rate constant with Cdk2 ÷ rate constant with model thiol (fold); conditions: additional mutation C177A
T8 construct: poly-histidine; made in house; host or cells: E. coli
Summary of the method: as §1

[10] = biological target: T9, Cdk2(C177A, F80C) (Homo sapiens, UniProt P24941, C177A/F80C); assay: Kinetic thiol consumption assay with Cdk2 mutant F80C, incl. kobs versus concentration (Kd, k2); format: binding; design: key to Rate enhancement, Cdk2 F80C: Cdk2 rate constant divided by model-thiol rate constant; conditions: additional mutation C177A
T9 construct: poly-histidine; made in house; host or cells: E. coli
Summary of the method: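 His-tagged Cdk2(C177A/F80C) from E. coli or model thiol, 5 μM in degassed phosphate buffer pH 8 with TCEP beads, reacted with acrylamide ligands; fluorescence (ex/em 380/470 nm) normalized to DMSO control and fitted to first-order decay for kobs. Kd and k2 obtained from hyperbolic fit of kobs versus ligand concentration.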

Structure (SMILES) | Rate constant with Cdk2[C177A, F80C, K278C] (k(Cdk2_mut)) [1] | Rate constant with Cdk2 (k(Cdk2)) [2] | k(Cdk2)/k(Cdk2_mut) rate enhancement [2] | k(Cdk2)/k(GSH) rate enhancement [2] | Rate constant with glutathione (k(GSH)) [3] | further results
C=CC(=O)N(C1CC1)C1CCCCC1C1CCCCC1 (stereo not drawn) [CA-081] | 0.00475 | 0.00879 | 1.851 | 5.108 | 0.00172 | 
C=CC(=O)N1CCn2c(C(=O)NC3CC3)ccc2C1C (stereo not drawn) [CA-040] | 0.0302 | 0.02965 | 0.9818 | 0.8399 | 0.0353 | 
C=CC(=O)N(c1cccc2ncccc12)C1CCC1 [CA-032] | 0.01104 | 0.02299 | 2.082 | 1.4 | 0.01642 | 
C=CC(=O)N(Cc1ccco1)Cc1ccco1 [CA-099] | 0.0159 | 0.2899 | 18.23 | 1.26 | 0.23 | 
C=CC(=O)Nc1ccccc1C#N [EL-1178] | 0.165 | 0.1611 | 0.9764 |  |  | Rate enhancement, Cdk2 S276C ([4]; Cdk2 S276C): 0.934; Rate constant with Cdk2 S276C ([4]; Protein: Cdk2, cysteine position S276C, in h^-1): 0.04503; Rate enhancement, Cdk2 T182C ([5]; Cdk2 T182C): 5.018; Rate constant with Cdk2 T182C ([5]; Protein: Cdk2, cysteine position T182C, in h^-1): 0.2419; Rate enhancement, Cdk2 R122C ([6]; Cdk2 R122C): 0.491; Rate constant with Cdk2 R122C ([6]; Protein: Cdk2, cysteine position R122C, in h-1): 0.02367; Rate enhancement, Cdk2 WT ([2]; Cdk2 WT, no additional mutations): 3.342; Rate constant with Cdk2 WT ([2]; Protein: Cdk2, cysteine position WT, in h^-1): 0.1611; Rate enhancement, Cdk2 H71C ([7]; Cdk2 H71C): 0.5613; Rate constant with Cdk2 H71C ([7]; Protein: Cdk2, cysteine position H71C, in h^-1): 0.02706; Rate enhancement, Cdk2 N272 ([8]; Cdk2 N272, additional mutation C177A): 0.1844; Rate constant with Cdk2 N272C ([8]; Protein: Cdk2, cysteine position N272C, additional mutation C177A, in h^-1): 0.008888; Rate enhancement, Cdk2 S181C ([9]; Cdk2 S181C): 0.5323; Rate constant with Cdk2 S181C ([9]; Protein: Cdk2, cysteine position S181C, in h^-1): 0.02566; Rate enhancement, Cdk2 F80C ([10]; Cdk2 F80C): 1.938; Rate constant with Cdk2 F80C ([10]; Protein: Cdk2, cysteine position F80C, in h^-1): 0.09345
